Common to all, as to format: functional
Test [1] can be described thus: Antiproliferative activity against multidrug resistant human MES-SA/Dx5 cells by SRB assay.
In test [2] the test system is SK-OV-3. Description: Antiproliferative activity against human SKOV3 cells by SRB assay. A general note: In SRB staining, fixed cells bind dye roughly in proportion to their protein.
Test [3] in a line: Antiproliferative activity against human MESSA cells by SRB assay. To be noted: MES-SA.
For test [4], the system named is HCT-15. Kind of test: Antiproliferative activity against human HCT15 cells by SRB assay.
The nature of test [5]: Antiproliferative activity against multidrug resistant human HCT15/CLO2 cells by SRB assay. To be noted: HCT-15.
Test [6] deals with A549. Kind of test: Antiproliferative activity against human A549 cells by SRB assay.
The subject of test [7] is A-431. Description: Antiproliferative activity against human A431 cells by SRB assay.
The subject of test [8] is MDA-MB-231. Kind of test: Antiproliferative activity against human MDA-MB-231 cells by SRB assay.
Test [9] relates to BT-474. Kind of test: Antiproliferative activity against human BT474 cells by SRB assay.

GI50 data for 36 molecules are collected here from ChEMBL document CHEMBL1136870, “Synthesis of aristolactam analogues and evaluation of their antitumor activity” (2009).

As to `COc1cc2c3c(cc4cc(Cl)ccc4c3c1OC)N(CCN1CCCCC1)C2=O`, the GI50 in test [1] is 0.61 µM; in [2], 0.91 µM; in [3], 0.59 µM; in test [4], 0.92 µM; in test [5], 0.83 µM; in test [6], 0.26 µM. It took 0.18 µM to inhibit growth in test [7] by half (GI50).
As for `COc1cc2c3c(cc4ccc(C)cc4c3c1OC)N(C)C2=O`, the GI50 in test [1] was over 30 µM; in test [3], over 30 µM; in test [4] it was 1.53 µM; in [5] it was 1.46 µM.
For the molecule `COc1cc2c3c(cc4c5c(ccc4c3c1OC)OCO5)N(CCN1CCCCC1)C2=O`, the GI50 in test [1] was under 0.1 µM; in test [2], under 0.1 µM; in [3], under 0.1 µM; in test [4], 0.1 µM; in test [5], 0.14 µM; in test [6], under 0.1 µM. In test [7], this molecule displayed a GI50 of under 0.1 µM.
In the case of `COc1c(O)cc2c3c(cc4ccccc4c13)N(C)C2=O` [SAURISTOLACTAM], the GI50 in test [1] worked out at 23.1 µM; in test [3], 23.8 µM; in test [4] it was 4.1 µM; in test [5], 4.38 µM.
Turning to `COc1ccc2cc3c4c(cc(OC)c(OC)c4c2c1)C(=O)N3CCN1CCCCC1`, the GI50 in test [2] was found to be 6.72 µM; in test [4], 5.91 µM; in test [6], 4.1 µM; in test [7], 2.95 µM.
As to `COc1ccc2c(c1)cc1c3c(cc(OC)c(OC)c32)C(=O)N1C`, the 50% growth inhibitory concentration (GI50) in test [1] is 0.76 µM; in test [3] it was 1.22 µM; in [4], 0.3 µM; in test [5], 0.16 µM.
Consider `COc1cc2c3c(c(C)c4ccccc4c3c1OC)N(C)C2=O`, for which the 50% growth inhibitory concentration (GI50) in test [2] and in [7] was over 30 µM throughout.
For `COc1cc2cc3c4c(cc(OC)c(OC)c4c2cc1OC)C(=O)N3CCN(C)C`, the 50% growth inhibitory concentration (GI50) in test [1] amounted to 0.51 µM; in [2] it was 0.33 µM; in [3], 0.39 µM; in test [4], 0.72 µM; in [5] it was 0.57 µM; in test [6] it was 0.19 µM. The molecule further had a GI50 in test [7] of 0.15 µM.
On to `COc1cc2c3c(cc4ccccc4c3c1OC)N(Cc1ccncc1)C2=O`, for which the 50% growth inhibitory concentration (GI50) in test [2] was 9.94 µM; in test [7], over 30 µM.
Regarding `COc1cccc2c1C(=O)c1c(O)c3c(c(O)c1C2=O)C[C@@](O)(C(=O)CO)C[C@@H]3O[C@H]1C[C@H](N)[C@H](O)[C@H](C)O1` [DOXORUBICIN], the 50% growth inhibitory concentration (GI50) stood at 0.93 µM in test [1]; 0.021 µM in [2]; 0.0051 µM in test [3]; 0.19 µM in test [4]; 7.92 µM in test [5]; 0.003 µM in [6]. The GI50 in [7] amounted to 0.0012 µM.
As for `CC(=O)O[C@H]1C(=O)[C@@]2(C)[C@H]([C@H](OC(=O)c3ccccc3)[C@]3(O)C[C@H](OC(=O)[C@H](O)[C@@H](NC(=O)c4ccccc4)c4ccccc4)C(C)=C1C3(C)C)[C@]1(OC(C)=O)CO[C@@H]1C[C@@H]2O` [PACLITAXEL], the concentration for 50% growth inhibition (GI50) in test [1] is 0.16 µM; in test [3] it was under 1e-05 µM; in [4], 0.011 µM; in [5], 0.83 µM; in test [7], under 1e-05 µM.
Turning to `COc1cc2c3c(cc4ccccc4c3c1OC)N(CCN1CCOCC1)C2=O`, the results for the GI50 in test [2] and in [7] were 5.49 µM and 4.64 µM, respectively.
As for `COc1ccc2cc3c4c(cc(OC)c(OC)c4c2c1)C(=O)N3` [ARISTOLACTAM BIII], the GI50 was determined as 2.82 µM in test [1], 2.7 µM in test [3], 3.74 µM in test [4] and 3.35 µM in test [5].
Take `COc1ccc(N2C(=O)c3cc(OC)c(OC)c4c3c2cc2ccccc24)cc1`: the concentration for 50% growth inhibition (GI50) is 16.2 µM in [2], over 30 µM in test [8], 23.7 µM in test [9] and 32.5 µM in test [7].
The matching figures for `COCCN1C(=O)c2cc(OC)c(OC)c3c2c1cc1ccccc13`: 24.3 µM, over 30 µM, 22.5 µM and over 30 µM.
Take `CN1C(=O)c2cccc3c2c1cc1ccccc13`: the concentration for 50% growth inhibition (GI50) in test [1] turned out to be 3.56 µM; in [2], 4.26 µM; in test [3], 1.81 µM; in [4] it was 4.21 µM; in test [5], 5.72 µM; in [6], 1.54 µM. Halving of growth in [7] (GI50) required 8.02 µM.
As for `COc1cc2c3c(cc4ccccc4c3c1OC)N(Cc1cccs1)C2=O`, the GI50 in test [2] is 23.8 µM; in test [8], over 30 µM; in test [9], over 30 µM; in test [7] it was over 30 µM.
Turning to `COc1cc2c3c(cc4ccccc4c3c1O)N(C)C2=O` [N-METHYL PIPEROLACTAM A], the 50% growth inhibitory concentration (GI50) in test [1] is 14.5 µM; in [3], 14.5 µM; in test [4] it was 12.8 µM; in test [5], 10.8 µM.
Consider `COc1cc2c3c(cc4ccccc4c3c1O)NC2=O` [PIPEROLACTAM A], for which the concentration for 50% growth inhibition (GI50) was 27 µM in [1], over 30 µM in test [3], over 30 µM in [4] and over 30 µM in test [5].
Consider `CCN1C(=O)c2cc(OC)c(OC)c3c2c1cc1ccccc13`, for which the GI50 in [2] worked out at 5.45 µM; in test [8], 9.37 µM; in test [9], 4.16 µM; in test [7], 10.9 µM.
As to `Cc1c2c3c(cccc3c3ccccc13)C(=O)N2C`, the GI50 in [2] was 13.1 µM; in [4], 3.79 µM; in test [6], 1.62 µM; in [7], 2.83 µM.
Regarding `COc1cc([C@@H]2c3cc4c(cc3[C@@H](O[C@@H]3O[C@@H]5CO[C@@H](C)O[C@H]5[C@H](O)[C@H]3O)[C@H]3COC(=O)[C@H]23)OCO4)cc(OC)c1O` [ETOPOSIDE], the GI50 in [1] is 9.72 µM; in [3] it was 0.21 µM; in test [4], 1.25 µM; in test [5], 10 µM.
Regarding `COc1cc2c3c(cc4ccccc4c3c1OC)N(c1ccc(C(C)(C)C)cc1)C2=O`, the GI50 in [2] was 6.04 µM; in test [8] it was 18.2 µM; in test [9], 11.1 µM; in test [7], 3.51 µM.
As to `COc1cc2c3c(cc4ccccc4c3c1OC)N(CCc1ccccc1)C2=O`, the 50% growth inhibitory concentration (GI50) in test [2] is 13.4 µM; in [8], over 30 µM; in test [9], 12.8 µM; in test [7], 23.7 µM.
On to `COc1cc2c3c(c(C)c4ccccc4c3c1OC)N(CCN1CCCCC1)C2=O`, for which the GI50 in test [2] was 0.33 µM; in [4], 0.27 µM; in test [6], 0.18 µM; in test [7], 0.18 µM.
Turning to `COc1cc2c3c(cc4ccccc4c3c1OC)N(C(C)C)C2=O`, the 50% growth inhibitory concentration (GI50) in test [2] is 19.4 µM; in test [8], over 30 µM; in test [9], 20.6 µM; in test [7], over 30 µM.
On to `COc1cc2c3c(cc4ccccc4c3c1OC)N(C)C2=O`, for which the GI50 in [1] was found to be 9.52 µM; in test [2] it was 3.42 µM; in [3], 3.84 µM; in [4] it was 8.47 µM; in test [5] it was 8.61 µM; in test [7], 5.75 µM.
On to `COc1cc2c3c(cc4c5c(ccc4c3c1OC)OCO5)N(CCN(C)C)C2=O`, for which the GI50 is under 0.0001 µM in test [1]; under 0.1 µM in test [2]; under 0.0001 µM in test [3]; under 0.0001 µM in [4]; 0.0095 µM in [5]; under 0.1 µM in [6]. For the same molecule, in test [7], the GI50 is under 0.0001 µM.
As to `C#CCN1C(=O)c2cc(OC)c(OC)c3c2c1cc1ccccc13`, the GI50 in [2], in test [8], in test [9] and in test [7] was over 30 µM throughout.
For `COc1cc2c3c(cc4ccccc4c3c1OC)N(CC1CC1)C2=O`, the GI50 is 24.2 µM in test [2], over 30 µM in test [8], 23 µM in [9] and 27.1 µM in test [7].
For the molecule `COc1cc2c3c(cc4ccccc4c3c1OC)NC2=O` [CEPHARANONE B], the concentration for 50% growth inhibition (GI50) in test [1], in test [3], in test [4] and in test [5] was over 30 µM throughout.
As for `COc1cc2c3c(cc4cc(Cl)ccc4c3c1OC)N(C)C2=O`, the concentration for 50% growth inhibition (GI50) is over 30 µM in test [1], over 30 µM in [3], 2.94 µM in [4] and 17.9 µM in test [5].
For `COc1cc2cc3c4c(cc(OC)c(OC)c4c2cc1OC)C(=O)N3CCN1CCCCC1`, the GI50 turned out to be 1.71 µM in test [2], 4.22 µM in test [4], 1.54 µM in test [6] and 1.19 µM in [7].
For `COc1cc2c3c(cc4ccccc4c3c1OC)N(CCN1CCCCC1)C2=O`, the GI50 in test [1] was determined as 1.51 µM; in test [2], 0.95 µM; in test [3] it was 1.46 µM; in [4] it was 1.73 µM; in test [5], 1.58 µM; in test [6], 0.95 µM. The same molecule returned a GI50 in [7] of 1.29 µM.
Turning to `COc1cc2cc3c4c(cc(OC)c(OC)c4c2cc1OC)C(=O)N3C`, the GI50 was determined as 1.01 µM in test [1], 1.05 µM in test [3], 0.06 µM in [4] and 0.07 µM in test [5].
On the same counts, the results for `COc1cc2c3c(cc4cc5c(cc4c3c1OC)OCO5)N(C)C2=O` are 18.9 µM, 27.1 µM, 5.93 µM and 1.64 µM.

In general, GI50 refers to the concentration giving 50% growth inhibition. Lower therefore signals greater sensitivity of the cells.
